Laboratory results published in PMC7546004, “Targeting BCL10 by small peptides for the treatment of B cell lymphoma” (Theranostics, 2020).
Square brackets hold non-standard residues; d marks the D form. Peptide text beside a SMILES is read from it.

Legend:
HBL1 cells = format: cell-based
Excerpt: (§1) GraphPad Prism software was used to determine GI50 values.

DLBCL cell lines = format: cell-based; details: Figure 6D and Figure S7D
Excerpt: as §1

TMD8 and SU-DHL4 cells [1] = assay: Apoptosis (annexin V / PI staining); format: cell-based; details: annexin V+/PI- plus annexin V+/PI+, 24 h; two independent experiments
Procedure: ([…]); shBcl10 ([…] TGT […]). Lentivirus production using […]
selected with puromycin (Invitrogen, A1113803) for 2 weeks. Log phase growing cells were seeded […]
The number cells were measured by flow […]
Cells were harvested and RNA was extracted and quantified. Synthesis of cDNA was performed […]
QuantStudio 6 Flex (Applied Biosystems). RNA was normalized by β-Actin or GAPDH mRNA. The following quantitative PCR primers were used: […]
hGAPDH-F: 5′-[…] T […]- 3’ […]
hGAPDH-R: 5’-TACT T TAT […]-3’ […]
hActin- F: 5’-[…]-3’ […]
hActin- R: 5’-TC A […]-3’ […]
hIL10- F: 5’-GGT […] TGTCTGA-3’ […]
hIL10- R: 5’-AGGGAGT […]-3’ […]
hIL6-R: 5’- […]-3 ’. […]
hBcl10-F: 5’-[…] TAGAAA-3’ […]
hBcl10-R: 5’-[…] T-3’ […]
wa sh e d and lysed with RIPA buffer. Biotinylated BCL10 -P4 in cells were determined by immunoblotting with Streptavidin (Cell signaling, cat. #3999S).
Apoptosis and cell cycle:
1:100 dilution for 15 min at room temperature in the dark. Signals from FL1 and FL3 channels were collected by MACSQuant analyzer and data were analyzed using FloJo (Ashland, OR). […]
For cell cycle analysis, cells were washed twice with cold PBS and fixed in 70% ethanol overnight at 4°C. […] DNA content was measured by BD LSRII flow cytometer and data were analyzed in FloJo. […]
All extracts were treated with DNase in column during RNA purification. RNA integrity was determined on an Agilent 2100 Bioanalyzer (Agilent Technologies, SantaClara, CA). […]

TMD8 and SU-DHL4 cells [2] = assay: Cell cycle analysis (PI, flow cytometry); format: cell-based; details: 5 μM or 10 μM, 24 h; two independent experiments
Procedure: For cell cycle analysis, cells were washed twice with cold PBS and fixed in 70% ethanol overnight at 4°C. Fixed cells were collected at 1800 rpm for 10 min and stained with PBS containing PI and DNase-free RNase A (Sigma-Aldrich) for 1h at room temperature in the dark. DNA content was measured by BD LSRII flow cytometer and data were analyzed in FloJo. […]
Committee of Changhai Hospital, the Second Military Medical University.
(§2) Immunohistochemistry (IHC)
(§3) Formalin-fixed paraffin -embedded tumor xenografts were sectioned, dewaxed and submitted to antigen retrieval. The anti- Ki67 (proteintech, 27309-1) antibody was used at a 1:500 dilution.
(§4) Biotin-conjugated secondary antibodies (MXB biotechnologies, KIT-9710) were used. Then avidin/biotin peroxidase (MXB biotechnologies, KIT-9710) was applied to the slides. Color was developed with diaminobenzoate chromogen peroxidase substrate (MXB biotechnologies, MAX007TM) and counterstained with […] (MXB biotechnologies, MAX007TM). Pictures were obtained using NanoZoomer-S60 microscope ([…]).

[3] = system: SU-DHL6 cell xenograft tumors; assay: Mouse xenograft model; format: in vivo, NCG mice; details: DRI-BCL10-P4 10 mg/kg Q.d. or BCL10-Ctl 5 mg/kg Q.d., i.v.; n=8; p=0.049, Mann-Whitney U test
Procedure: (§5) Mouse xenograft experiments:
(§6) Six-week-old female NOD prkdc-/- IL-2Rg-/- (NCG) mice purchased from GemPharmatech Co., Lt d we re raised in a SPF- level Laboratory Animal Room. Low -passage 5x106 human TMD8, SU-DHL- 6 or 1x10^7 OCl-LY1 cells at 100μl were premixed with 100μl Matrigel (Corning Biocoat, cat. # 354234) and inoculated subcutaneously into the right flank of mice. When tumors reached an average size of 150 mm3, mice were randomly assigned into treatment groups (10 mg /kg DRI-BCL10- P4) or control groups (5 mg /kg BCL10- Ctl). Peptides were reconstituted in 5% DMSO/PBS and administered by i.v. injection. Tumor volumes were monitored by a digital caliper every other day and calculated using the formula: (smallest diameter2 x largest diameter)/2. Mice were weighed every day and sacrificed at the end of the treatment. T umors and main organs were harvested and we i ghte d at the moment of death. All animal experiments were approved by the Animal Institute Committee of Changhai Hospital, the Second Military Medical University.
as §2, §3
Biotin-conjugated secondary antibodies (MXB biotechnologies, KIT-9710) were used. […]

[4] = system: OCI-LY1 cell xenograft tumors; assay: Mouse xenograft model; format: in vivo, NCG mice; details: DRI-BCL10-P4 10 mg/kg or BCL10-Ctl 5 mg/kg daily, i.v.; Figure S8A-C
Procedure: as §5, §6, §2, §3, §4
(§7) Terminal deoxynucleotidyl transferase dUTP nick end labeling, TUNEL assay was used to detect apoptotic DNA fragmentation. All the experiments were performed according to the kit (KeyGEN Biotech, KGA703) instructions. Briefly, formalin-fixed paraff i n-embedded xenografted tumors were deparaffinized and pre-treated with trypsin to expose DNA. Endogenous peroxidase was quenched using 3% hydrogen peroxide followed by incubation with TdT enzyme for 1 hour. Then, antidigoxigenin-peroxidase was applied to the slides. Color was developed with diaminobenzoate chromogen peroxidase substrate and counterstained with methyl green. Pictures were obtained using NanoZoomer-S60 microscope ([…]).

[5] = system: TMD8 cell xenograft tumors; assay: Mouse xenograft model; format: in vivo, NCG mice
Procedure: as §5, §6, §2, §3, §4, §7

[6] = TMD8 xenograft, 10 mg/kg, compared with control group

## CC[C@@H](C)[C@@H](NC(=O)[C@@H](CCCCN)NC(=O)[C@H](NC(=O)[C@@H](Cc1c[nH]c2ccccc12)NC(=O)[C@@H](Cc1ccccc1)NC(=O)[C@@H](CCC(N)=O)NC(=O)[C@@H](CC(N)=O)NC(=O)[C@@H](CCCNC(=N)N)NC(=O)[C@@H](CCCNC(=N)N)NC(=O)[C@@H](CCSC)NC(=O)[C@@H](CCCCN)NC(=O)[C@@H](Cc1c[nH]c2ccccc12)NC(=O)[C@@H](CCCCN)NC(=O)[C@@H](CCCCN)NC(=O)[C@@H](CCCNC(=N)N)NC(=O)[C@H](NC(=O)[C@@H](CO)NC(=O)[C@@H](CO)NC(=O)[C@@H](CCCNC(=N)N)NC(=O)[C@@H](CCCCN)NC(=O)[C@@H](CCCNC(=N)N)NC(=O)[C@@H](C)NC(=O)CNC(=O)[C@@H](CCCCN)NC(=O)[C@@H](CC(C)C)NC(=O)[C@@H](CC(C)C)NC(=O)[C@@H](CC(=O)O)NC(=O)[C@@H](Cc1ccc(O)cc1)NC(=O)[C@@H](CC(C)C)NC(=O)[C@@H](CCC(N)=O)NC(=O)[C@H](N)CCC(=O)O)[C@H](C)O)[C@H](C)CC)C(=O)N[C@H](CCC(N)=O)C(=O)N[C@H](CCCNC(=N)N)C(=O)N[C@H](CC(=O)O)C(=O)O [DRI-BCL10-P4] (H-[dE][dQ][dL][dY][dD][dL][dL][dK]G[dA][dR][dK][dR][dS][dS][dT][dR][dK][dK][dW][dK][dM][dR][dR][dN][dQ][dF][dW][dI][dK][dI][dQ][dR][dD]-OH)
HBL1 cells
  GI50: 6.78 ± 3.7 µM
DLBCL cell lines
  growth of CB-SMOC-dependent cell lines (HBL1, TMD8 and SU-DHL4 cells): selectively suppressed the growth of CB-SMOC-dependent cell lines
TMD8 and SU-DHL4 cells [1]
  apoptosis of TMD8 and SU-DHL4 cells: induced apoptosis
TMD8 and SU-DHL4 cells [2]
  cell cycle profile of TMD8 and SU-DHL4 cells: cell cycle arrest
[3]
  growth of SU-DHL6 cell xenograft tumors: significantly inhibited the growth
[4]
  growth of OCI-LY1 cell xenograft tumors: neither peptide significantly suppressed the growth
[5]; DRI-BCL10-P4 10 mg/kg Q.d. or BCL10-Ctl 5 mg/kg Q.d., i.v., n=8, p=0.013, Mann-Whitney U test
  growth of TMD8 cell xenograft tumors: significantly inhibited the growth
[5]; [6]
  apoptosis rate in tumor sections (TUNEL staining): significant increase in the apoptosis rate
  proliferation in tumor sections (Ki67 staining): significant decrease in the proliferation
